In assay [1] the test system is A2780. Nature of the assay: Antitumor activity against human A2780 cells xenografted in BALB/c nude mouse assessed as tumor growth inhibition at 50 mg/kg, ip administered once every 2 days for 14 consecutive days relative to control. The format is functional. As to conditions: read-out: TGI.
For assay [2], the system named is A2780. Nature of the assay: Antiproliferative activity against human A2780 cells measured after 48 hrs by MTT assay. The format is functional, cell-based. Conditions: A2780, 48 h. Background: Tetrazolium assays rely on reduction of a dye to a coloured formazan, in cell work by metabolically active cells.
Assay [3] addresses Glycogen synthase kinase-3 beta (Homo sapiens, UniProt P49841). Nature of the assay: Inhibition of recombinant human GSK3beta using […] as substrate at 100 uM after 60 mins by spectrophotometric analysis.
The target of assay [4] is Protein kinase C alpha type (Homo sapiens) (UniProt P17252). Nature of the assay: Inhibition of recombinant human PKCalpha using biotinyl-beta Abeta Abeta AKIQASFRGHMARKK as substrate at 100 uM after 10 mins in presence of ATP relative to control.
Assay [5] concerns the target 3-phosphoinositide-dependent protein kinase 1 (Homo sapiens) (UniProt O15530). Nature of the assay: Inhibition of recombinant human PDK1 using Ulight-FLGFTYVAP as substrate at 100 uM after 90 mins in presence of ATP relative to control.
The target of assay [6] is Vascular endothelial growth factor receptor 1 (Homo sapiens) (UniProt P17948). Nature of the assay: Inhibition of VEGFR-1 (unknown origin) using poly (Glu, Tyr) 4:1 as substrate at 100 uM after 1 hr by ELISA relative to control.
Sequence of Vascular endothelial growth factor receptor 1 (Homo sapiens) (P17948 whole entry): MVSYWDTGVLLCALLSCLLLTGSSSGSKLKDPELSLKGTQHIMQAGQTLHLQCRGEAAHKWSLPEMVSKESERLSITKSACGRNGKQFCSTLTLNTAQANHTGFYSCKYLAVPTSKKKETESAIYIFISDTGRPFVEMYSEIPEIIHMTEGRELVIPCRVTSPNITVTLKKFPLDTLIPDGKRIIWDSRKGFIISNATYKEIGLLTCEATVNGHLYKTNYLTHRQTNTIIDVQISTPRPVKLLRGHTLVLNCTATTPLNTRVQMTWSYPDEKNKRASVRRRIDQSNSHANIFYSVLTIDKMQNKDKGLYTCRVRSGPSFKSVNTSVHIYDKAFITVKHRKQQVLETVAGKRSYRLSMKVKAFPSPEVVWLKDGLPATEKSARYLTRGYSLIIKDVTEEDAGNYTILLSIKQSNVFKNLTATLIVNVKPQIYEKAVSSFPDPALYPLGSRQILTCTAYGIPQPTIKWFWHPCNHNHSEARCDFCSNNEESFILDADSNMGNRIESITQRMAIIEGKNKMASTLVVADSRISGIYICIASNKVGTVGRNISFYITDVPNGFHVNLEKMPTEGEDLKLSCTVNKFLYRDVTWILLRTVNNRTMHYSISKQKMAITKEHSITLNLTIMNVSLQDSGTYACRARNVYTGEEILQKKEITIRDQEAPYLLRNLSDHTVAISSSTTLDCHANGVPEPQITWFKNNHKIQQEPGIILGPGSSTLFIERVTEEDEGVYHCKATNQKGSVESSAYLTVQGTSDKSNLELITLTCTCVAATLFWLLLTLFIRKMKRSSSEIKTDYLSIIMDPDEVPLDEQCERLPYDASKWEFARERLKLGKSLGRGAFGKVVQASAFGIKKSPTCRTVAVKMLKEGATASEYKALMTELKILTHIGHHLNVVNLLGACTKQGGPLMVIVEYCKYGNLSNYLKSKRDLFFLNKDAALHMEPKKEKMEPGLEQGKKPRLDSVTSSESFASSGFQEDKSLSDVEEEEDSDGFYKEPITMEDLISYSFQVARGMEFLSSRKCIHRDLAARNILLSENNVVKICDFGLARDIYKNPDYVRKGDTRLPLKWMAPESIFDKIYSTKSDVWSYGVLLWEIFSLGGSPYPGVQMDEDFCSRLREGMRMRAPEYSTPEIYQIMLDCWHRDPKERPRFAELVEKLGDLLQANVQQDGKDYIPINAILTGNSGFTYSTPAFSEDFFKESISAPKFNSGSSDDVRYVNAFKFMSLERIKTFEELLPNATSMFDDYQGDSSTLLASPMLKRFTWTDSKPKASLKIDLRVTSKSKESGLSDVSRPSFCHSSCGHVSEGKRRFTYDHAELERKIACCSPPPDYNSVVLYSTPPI
Assay [7] deals with Mast/stem cell growth factor receptor Kit (Homo sapiens) (UniProt P10721). Nature of the assay: Inhibition of c-kit (unknown origin) using poly (Glu, Tyr) 4:1 as substrate at 100 uM after 1 hr by ELISA relative to control.
The target of assay [8] is Receptor tyrosine-protein kinase erbB-4 (Homo sapiens) (UniProt Q15303). Nature of the assay: Inhibition of ErbB4 (unknown origin) using poly (Glu, Tyr) 4:1 as substrate at 100 uM after 1 hr by ELISA relative to control.
For assay [9], the target named is Epidermal growth factor receptor (Homo sapiens) (UniProt P00533). Nature of the assay: Inhibition of EGFR (unknown origin) using poly (Glu, Tyr) 4:1 as substrate at 100 uM after 1 hr by ELISA relative to control. On the technique in general: In an ELISA, binding on a coated surface is turned into a signal by an enzyme label.
Sequence of Epidermal growth factor receptor (Homo sapiens) (P00533 whole entry): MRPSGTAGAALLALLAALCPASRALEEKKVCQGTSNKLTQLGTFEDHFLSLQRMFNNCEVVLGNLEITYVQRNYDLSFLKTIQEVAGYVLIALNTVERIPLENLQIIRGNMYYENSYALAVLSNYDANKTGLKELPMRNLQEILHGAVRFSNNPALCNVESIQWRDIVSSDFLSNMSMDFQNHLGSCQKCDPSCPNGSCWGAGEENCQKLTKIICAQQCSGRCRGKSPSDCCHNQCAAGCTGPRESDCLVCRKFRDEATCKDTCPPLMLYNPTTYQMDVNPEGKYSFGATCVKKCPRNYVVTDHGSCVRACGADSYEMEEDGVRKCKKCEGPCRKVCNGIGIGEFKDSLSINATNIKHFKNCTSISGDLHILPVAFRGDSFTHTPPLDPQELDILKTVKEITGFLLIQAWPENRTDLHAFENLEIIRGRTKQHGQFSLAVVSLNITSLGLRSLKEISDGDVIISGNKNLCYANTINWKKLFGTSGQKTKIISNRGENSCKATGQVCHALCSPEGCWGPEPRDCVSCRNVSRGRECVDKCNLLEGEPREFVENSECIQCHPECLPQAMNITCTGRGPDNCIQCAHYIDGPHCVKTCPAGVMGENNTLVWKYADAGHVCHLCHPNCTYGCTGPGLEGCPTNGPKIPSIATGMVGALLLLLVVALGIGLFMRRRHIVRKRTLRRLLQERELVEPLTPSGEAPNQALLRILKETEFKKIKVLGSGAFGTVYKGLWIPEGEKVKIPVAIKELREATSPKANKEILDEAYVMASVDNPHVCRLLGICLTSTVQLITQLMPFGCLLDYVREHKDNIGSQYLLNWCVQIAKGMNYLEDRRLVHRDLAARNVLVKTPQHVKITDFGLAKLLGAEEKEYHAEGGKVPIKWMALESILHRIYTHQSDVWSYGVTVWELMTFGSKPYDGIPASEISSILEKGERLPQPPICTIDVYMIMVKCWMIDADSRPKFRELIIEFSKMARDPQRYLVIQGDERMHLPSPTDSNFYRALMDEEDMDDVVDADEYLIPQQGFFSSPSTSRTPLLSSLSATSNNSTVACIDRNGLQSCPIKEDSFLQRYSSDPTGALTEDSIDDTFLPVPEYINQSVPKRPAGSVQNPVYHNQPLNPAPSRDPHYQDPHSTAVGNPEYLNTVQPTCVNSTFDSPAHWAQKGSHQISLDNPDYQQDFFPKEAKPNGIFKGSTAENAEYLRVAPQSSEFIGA
Assay [10] addresses Ephrin type-A receptor 2 (Homo sapiens) (UniProt P29317). Nature of the assay: Inhibition of EPH-A2 (unknown origin) using poly (Glu, Tyr) 4:1 as substrate at 100 uM after 1 hr by ELISA relative to control.
In assay [11] the target is Tyrosine-protein kinase receptor UFO (Homo sapiens) (UniProt P30530). Nature of the assay: Inhibition of AXL (unknown origin) using poly (Glu, Tyr) 4:1 as substrate at 100 uM after 1 hr by ELISA relative to control.
Sequence of Tyrosine-protein kinase receptor UFO (Homo sapiens) (P30530 whole entry): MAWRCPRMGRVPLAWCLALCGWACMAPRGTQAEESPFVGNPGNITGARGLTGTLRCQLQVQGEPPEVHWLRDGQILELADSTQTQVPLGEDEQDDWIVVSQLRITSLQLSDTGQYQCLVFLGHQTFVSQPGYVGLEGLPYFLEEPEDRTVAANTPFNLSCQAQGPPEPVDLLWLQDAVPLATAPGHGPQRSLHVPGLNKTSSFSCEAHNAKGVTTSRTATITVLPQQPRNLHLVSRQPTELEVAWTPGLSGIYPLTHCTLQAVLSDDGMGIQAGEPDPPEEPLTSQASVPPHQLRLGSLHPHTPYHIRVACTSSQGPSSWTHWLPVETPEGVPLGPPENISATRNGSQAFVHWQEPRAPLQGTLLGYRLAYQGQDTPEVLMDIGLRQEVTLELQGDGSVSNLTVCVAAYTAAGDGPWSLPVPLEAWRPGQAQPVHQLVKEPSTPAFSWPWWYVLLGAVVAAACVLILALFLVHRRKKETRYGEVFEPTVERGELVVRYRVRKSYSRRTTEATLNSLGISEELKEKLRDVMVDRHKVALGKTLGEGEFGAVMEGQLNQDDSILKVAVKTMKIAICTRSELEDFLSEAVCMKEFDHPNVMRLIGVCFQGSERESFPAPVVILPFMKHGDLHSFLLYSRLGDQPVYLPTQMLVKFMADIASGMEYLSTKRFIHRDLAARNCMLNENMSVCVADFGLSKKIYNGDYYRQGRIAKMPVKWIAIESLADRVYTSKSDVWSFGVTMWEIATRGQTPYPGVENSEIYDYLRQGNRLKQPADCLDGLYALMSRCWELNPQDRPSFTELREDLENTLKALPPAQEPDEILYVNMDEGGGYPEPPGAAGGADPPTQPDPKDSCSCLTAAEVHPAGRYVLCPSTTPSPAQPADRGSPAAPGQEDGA
The subject of assay [12] is A2780. Nature of the assay: Cell cycle arrest in human A2780 cells assessed as accumulation at G0/G1 phase at 5 to 15 uM after 48 hrs by propidium iodide staining based flow cytometry ( Rvb = 60%). The assay is classed as functional. Background: Flow cytometry measures light scatter and fluorescence of single cells or particles in a stream.

pIC50: −log10 of the molar value.

Sequence of Ephrin type-A receptor 2 (Homo sapiens) (P29317 whole entry): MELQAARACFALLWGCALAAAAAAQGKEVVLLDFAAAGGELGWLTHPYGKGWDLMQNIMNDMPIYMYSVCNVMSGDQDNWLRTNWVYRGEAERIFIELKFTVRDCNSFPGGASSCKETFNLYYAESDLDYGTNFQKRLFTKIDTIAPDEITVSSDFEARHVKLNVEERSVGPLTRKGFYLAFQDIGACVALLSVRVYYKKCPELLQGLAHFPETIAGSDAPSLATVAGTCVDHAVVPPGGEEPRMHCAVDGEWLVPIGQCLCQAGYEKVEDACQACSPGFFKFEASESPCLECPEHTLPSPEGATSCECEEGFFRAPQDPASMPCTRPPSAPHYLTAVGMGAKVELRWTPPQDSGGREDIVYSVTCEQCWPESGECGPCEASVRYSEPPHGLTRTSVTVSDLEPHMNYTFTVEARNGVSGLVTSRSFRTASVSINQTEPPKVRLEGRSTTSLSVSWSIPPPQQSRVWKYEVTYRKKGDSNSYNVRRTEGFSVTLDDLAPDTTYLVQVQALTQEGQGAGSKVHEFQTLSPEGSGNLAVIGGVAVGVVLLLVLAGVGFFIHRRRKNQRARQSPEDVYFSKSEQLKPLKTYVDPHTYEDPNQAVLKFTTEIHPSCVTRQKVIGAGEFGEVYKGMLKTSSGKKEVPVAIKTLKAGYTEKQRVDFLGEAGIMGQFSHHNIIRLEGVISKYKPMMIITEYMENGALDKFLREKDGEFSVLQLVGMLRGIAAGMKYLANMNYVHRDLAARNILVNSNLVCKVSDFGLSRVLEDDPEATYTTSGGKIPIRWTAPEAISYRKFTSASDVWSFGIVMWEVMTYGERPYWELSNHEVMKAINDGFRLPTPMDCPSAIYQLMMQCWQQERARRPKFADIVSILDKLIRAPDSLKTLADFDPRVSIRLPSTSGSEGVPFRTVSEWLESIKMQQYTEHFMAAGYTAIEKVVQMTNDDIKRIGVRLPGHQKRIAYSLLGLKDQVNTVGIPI

What is called pIC50 is the negative decadic logarithm of the IC50, by convention in mol/L. Lower therefore signals a large IC50. What is called inhibition is the drop in the measured response relative to a control, in per cent. With `CCCCCCCCCCCCCCC(=O)NC1CCN(C(=O)C2Sc3ccccc3N(CC)C2=O)CC1` (configuration not stated), the inhibition in vivo at 50 mg/kg in the assay on A2780 [1] is 41.3%. In the assay on A2780 [2], this molecule showed a pIC50 of 5.34. The inhibition in assay [3] was 94.3%; in assay [4], -7%; in assay [5] it was 0%; in assay [6] it was 6.8%; in assay [7], 0%; in assay [8] it was 34.3%. For the same molecule, the inhibition in assay [9] was determined as 0%; in assay [10] it was 13%; in assay [11] it was 33.8%. In addition, the Activity in the assay on A2780 [12] was determined as 77.1%.

(Values after ChEMBL document CHEMBL4052632 (Eur J Med Chem, 2017).)
